Experimental data from US20250275964A1, “METHODS OF INHIBITING LIVER-TYPE GLUTAMINASE, GLS2” (CORNELL UNIVERSITY, priority 2019, published 2025).
Where “and” joins values, the source holds several entries; their conditions need not be identical. Equal entries are not always repeated.

What was measured:
[1] = molecular target: T1, recombinant full-length human GLS2 (Homo sapiens, UniProt Q9UI32); assay: Real-time recombinant glutaminase activity assay, GLS2; assay type: biochemical
T1 construct: GLS2 (residues 38 to 602) in E. coli; inferred from pQE80 vector and Ni-NTA/imidazole purification; made in house; host or cells: E. coli BL21(DE3)
T1 sequence (Q9UI32 38-602): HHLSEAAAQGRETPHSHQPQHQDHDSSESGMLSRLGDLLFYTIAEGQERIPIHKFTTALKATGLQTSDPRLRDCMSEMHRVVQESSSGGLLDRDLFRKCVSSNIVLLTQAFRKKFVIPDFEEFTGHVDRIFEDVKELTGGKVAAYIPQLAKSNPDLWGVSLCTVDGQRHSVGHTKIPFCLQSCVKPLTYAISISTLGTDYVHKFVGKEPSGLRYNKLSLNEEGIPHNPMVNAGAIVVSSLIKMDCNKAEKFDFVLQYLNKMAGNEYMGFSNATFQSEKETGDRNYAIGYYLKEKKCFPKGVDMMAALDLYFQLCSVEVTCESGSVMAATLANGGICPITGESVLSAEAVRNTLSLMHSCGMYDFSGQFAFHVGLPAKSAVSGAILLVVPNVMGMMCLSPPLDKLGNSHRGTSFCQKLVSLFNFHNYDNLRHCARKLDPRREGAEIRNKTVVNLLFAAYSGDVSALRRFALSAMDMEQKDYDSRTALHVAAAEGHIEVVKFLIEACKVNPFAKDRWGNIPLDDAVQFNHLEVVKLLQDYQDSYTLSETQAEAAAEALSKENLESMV
Method: Real-time monitoring of glutaminase activity through NADH production was performed on a Cary Eclipse fluorescence spectrometer. The excitation and emission wavelengths were set at 340 nm and 460 nm, respectively. To a 1 ml cuvette, 900 μl of assay buffer was added, followed by 10 μl of GDH, 40 μl of 50 mM NAD and 20 μl of either DMSO or various dilutions of 968. Then, 100 μl of either 100 nM GAC or 500 nM GLS2 was added to this mixture and the fluorescence emission was monitored in real time. After 30 s, 200 μl of a mixture of glutamine and K2HPO4 was added such that the final concentrations of K2HPO4 and glutamine were 100 mM and 20 mM, respectively. The initial velocity of glutamine hydrolysis was obtained from the slopes of the linear portion of the kinetic curve.
Recombinant GAC and GLS2 were expressed in E. coli as described in Huang et al., “Characterization of the Interactions of Potent Allosteric Inhibitors with Glutaminase C, a Key Enzyme in Cancer Cell Glutamine Metabolism,” J. Biol. Chem. 293:3535-3545 (2018), which is hereby incorporated by reference in its entirety. Briefly, E. coli strain BL21(DE3) (Thermo Fisher Scientific) were transformed with vector pQE80-GAC-72-598 or with pQE80-GLS2-38-602 to express the processed forms of GAC and GLS2, respectively. For both constructs, expression was induced with 0.3 mM IPTG for 20 hours at 18° C., and cells were then harvested by centrifugation and lysed by sonication in binding buffer (500 mM NaCl, 50 mM Tris-HCl pH 8.5, 10 mM imidazole, 5 mM β-mercaptoethanol, 1 mM benzamidine chloride). The lysate was centrifuged, and the supernatant applied to a Ni-NTA column which was then washed with 100 column volumes of binding buffer followed by 10 volumes of wash buffer (500 mM NaCl, 50 mM Tris-HCl pH 8.5, 40 mM imidazole, 5 mM β-mercaptoethanol, 1 mM benzamidine chloride). Protein was eluted with 5 column volumes of elution buffer (500 mM NaCl, 300 mM imidazole-HCl pH 7.5, 5 mM β-mercaptoethanol, 1 mM benzamidine chloride). The eluate was centrifugally concentrated and then further purified by FPLC using a HiLoad 16/600 Superdex 200 column (GE Healthcare) with 150 mM NaCl, 5 mM Tris-HCl pH 7.5.

[2] = molecular target: T2, recombinant full-length human GLS (GAC splice variant) (Homo sapiens, UniProt O94925); conditions: previously reported (Wang et al. 2010); cited from earlier work
T2 construct: processed forms of human GAC (residues 72 to 598); inferred from pQE80 vector and Ni-NTA/imidazole purification; made in house; host or cells: E. coli BL21(DE3)
T2 sequence (O94925 72-598 isoform O94925-3): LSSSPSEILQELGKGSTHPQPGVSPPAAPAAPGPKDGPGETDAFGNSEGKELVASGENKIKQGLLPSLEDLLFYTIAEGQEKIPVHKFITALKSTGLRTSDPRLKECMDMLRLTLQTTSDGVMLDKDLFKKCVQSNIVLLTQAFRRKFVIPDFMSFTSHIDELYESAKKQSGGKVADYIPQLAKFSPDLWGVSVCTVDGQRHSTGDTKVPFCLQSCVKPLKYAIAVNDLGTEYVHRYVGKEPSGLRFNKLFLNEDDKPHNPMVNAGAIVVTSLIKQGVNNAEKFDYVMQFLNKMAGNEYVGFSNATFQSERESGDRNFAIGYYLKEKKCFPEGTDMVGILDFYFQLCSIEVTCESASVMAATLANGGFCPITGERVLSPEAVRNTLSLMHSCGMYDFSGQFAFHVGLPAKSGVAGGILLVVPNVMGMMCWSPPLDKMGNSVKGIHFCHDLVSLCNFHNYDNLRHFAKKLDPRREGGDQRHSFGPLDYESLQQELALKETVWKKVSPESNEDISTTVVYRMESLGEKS

[3] = molecular target: T2, recombinant full-length human GLS (GAC splice variant); assay: Real-time recombinant glutaminase activity assay, GLS; assay type: biochemical; conditions: different concentrations
Method: Real-time monitoring of glutaminase activity through NADH production was performed on a Cary Eclipse fluorescence spectrometer. The excitation and emission wavelengths were set at 340 nm and 460 nm, respectively. […] Then, 100 μl of either 100 nM GAC or 500 nM GLS2 was added to this mixture and the fluorescence emission was monitored in real time. After 30 s, 200 μl of a mixture of glutamine and K2HPO4 was added such that the final concentrations of K2HPO4 and glutamine were 100 mM and 20 mM, respectively. The initial velocity of glutamine hydrolysis was obtained from the slopes of the linear portion of the kinetic curve.

[4] = Gross toxicity in treated mice; assay type: in vivo; conditions: 10 mg/kg body weight, three times weekly for three weeks
Method: All experiments involving mice were carried out according to protocols approved by the Institutional Animal Care and Use Committee at Cornell University. In all cases, 6-8 week old female NOD.Cg-Prkdcscid Il2rg^tm1Wjl/SzJ (NSG) mice (The Jackson Laboratory) were used. For xenograft experiments, a suspension of MDA-MB-453 breast cancer cells (or derivative cell lines stably expressing shRNAs) was mixed 1:1 with Matrigel Matrix (BD Biosciences) to give a final concentration of 3×10^6 cells per 100 μl, and 3×10^6 cells were immediately injected into each of the two flanks of 6-8 week old female NOD.Cg-Prkdc^scid Il2rg^tm1Wjl/SzJ (NSG) mice (n=3 mice per condition). Tumor sizes were measured using calipers, and estimated volumes were calculated using the formula V=(π/6)×length×width^2, as described previously (Tomayko et al., “Determination of Subcutaneous Tumor Size in Athymic (Nude) Mice,” Cancer Chemother Pharmacol. 24:148-154 (1989), which is hereby incorporated by reference in its entirety). For experiments using MDA-MB-453 cells stably expressing shRNAs, mice were sacrificed after 6 weeks. For 968 treatment studies, when tumors of 1-2 mm diameter were detected, the mice were randomly divided into two groups and intraperitoneal (IP) injections of 968 (10 mg/kg) solution or carrier solution were initiated and carried out three times weekly. […]

| SMILES | inhibition of recombinant GLS2 activity ([1]; different concentrations) | inhibition of recombinant GLS2 activity ([1]; at 50 μM, NADH fluorescence in real time) | selectivity for GLS2 over GLS ([1]; purified recombinant glutaminases) | binding and inhibition of GLS splice variant GAC [2] | inhibition of recombinant GLS activity [3] | toxicity [4] |
| --- | --- | --- | --- | --- | --- | --- |
| O=C(Cc1ccccc1)Nc1nnc(CCSCCc2nnc(NC(=O)Cc3ccccc3)s2)s1 [BPTES] | resistance | – | – | – | – | – |
| CN(C)c1ccc(C2Nc3ccc4ccccc4c3C3=C2C(=O)CC(C)(C)C3)cc1Br (stereo not shown) [Compound 968] | inhibited | completely blocks activity | > 3 fold and ~3 fold | binds and inhibits | inhibited | no gross evidence of toxicity |
